Three molecules from publication PMC9709406 (Frontiers in Pharmacology, 2022) can be followed below.

One test relates to H1650TR cells. In words: MTT assay, taxol-resistant H1650TR. Type of test: cell-based. The settings on record: Homo sapiens, NCI-H1650, 48 h, value in parentheses in H1650 column. The source says: (§1) The human cancer cells (H1650, H1975, KYSE70, KYSE410 and KYSE450) were purchased from the Type Culture Collection of the Chinese Academy of Sciences (Shanghai, China). The human immortalized normal esophageal epithelial cell line SHEE was donated by Dr. Enmin Li from the Laboratory of Tumor Pathology (Shantou University Medical College, Shantou, Guangdong, China). Drug-resistant cells (H1650TR, H1975OR, KYSE70TR, KYSE410TR and KYSE450TR) were induced by China-US (Henan) Hormel Cancer Institute. The cellswere cultured in RPMI-1640 complete growth medium containing 100 U/mL penicillin-streptomycin and 10% FBS. Based on the above medium formula, 100 nm/L paclitaxel was added in taxol-resistant cells, 100 nm/L gefitinib was added in gefitinib-resistant cells. The cells were incubated at 37 °C in an atmosphere containing 5% of CO2. The compounds were dissolved in DMSO to make a 50 mM stock solution and were diluted to the concentration of working solutions with complete growth medium before administration.
Cells were seeded in 96-well plates with 2,200–2,500 cells/well in100 μL. One day after seeding, test compounds with the concentration between 0 and 50 μM were added with 0.1% DMSO as control. Five multiple wells for each concentration. After 48 h, MTT was added and incubated in the plate for 1–4 h in the incubator. The absorbance at 490 nm was measured using a microplate reader (Thermo).
For orientation: Tetrazolium assays rely on reduction of a dye to a coloured formazan, in cell work by metabolically active cells.

Test [1] has as its target T1, EGFR wild protein (H672-A1210) (Homo sapiens, UniProt P00533).
T1 construct: purchased Active MOTIF 31165
As to the kind of experiment: EGFR protein affinity determined with SPR. The conditions noted are these: immobilized wild-type EGFR. It counts as binding. How it is done: Firstly, EGFR protein (protein concentration : 0.468 μg/μL, Active MOTIF, cat: 31165, lot: 28215004) was covalently immobilized onto a CM5 sensor chip at densities of 2000 response units. […] During the drug-protein interaction, the change of the refractive index was measured in real-time which would allow the plotting of the results of interaction as response units versus time. The interaction results were analyzed under a BIA evaluation 3.0 software.

Another test deals with KYSE410 cells. In words: MTT assay, KYSE410. The conditions noted are these: Homo sapiens, KYSE-410; MTT, 48 h, KYSE410, n = 5; read-out: IC50 48 h KYSE410. Type of test: cell-based, human. The method in brief: (§2)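 Absorbance at 490 nm after 1–4 h MTT incubation gave viability of cells exposed 48 h to test compound (0–50 μM; vehicle 0.1% DMSO). Seeding was 2,200–2,500 cells/well, one day before dosing, in RPMI-1640/10% FBS at 37 °C, 5% CO2.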

Test [2] relates to KYSE450TR cells. In words: Cell cycle analysis by flow cytometry, KYSE450TR. The conditions noted are these: 24 h, icotinib at 8 μM, 3l at 8 μM. Type of test: cell-based, human. How it is done:
(§3) KYSE450/KYSE450TR cells were plated in 6-well plates with a density of 1×10^5 cells/well and cultured overnight. […] Trypsinization treatment and the cells were collected by centrifugation. The cell pellet was re-suspended in 70% ethanol at −20°C for at least 3 h. The cells were washed with PBS and were re-suspended in 250 μL of 0.6% tricine with Renease A for 1 h, then stained in PI (final concentration 1.8 μg/ml, Biolegend cat: 640945) for 15 min in dark. Cells were retransferred to the BD FACSCalibur™ Flow Cytometer. All analyses were performed with FlowJo software v105.3.6.
On the technique in general: Flow cytometry measures light scatter and fluorescence of single cells or particles in a stream.

A further test has as its system H1975OR cells. As to the kind of experiment: MTT assay, osimertinib-resistant H1975OR. Type of test: cell-based. The settings on record: Homo sapiens.
Text: as §1
(§4) Cells were seeded in 96-well plates with 2,200–2,500 cells/well in100 μL. One day after seeding, test compounds with the concentration between 0 and 50 μM were added with 0.1% DMSO as control. Five multiple wells for each concentration. […] The absorbance at 490 nm was measured using a microplate reader (Thermo).

Another test deals with KYSE70TR cells. As to the kind of experiment: MTT assay, taxol-resistant KYSE70TR. It counts as cell-based, human. The settings on record: Homo sapiens; MTT, 48 h, taxol-resistant KYSE70TR, value in parentheses; read-out: IC50 48 h KYSE70TR (data in parentheses) (converted).
Text: as §1, §4

In the next test the test system is KYSE70 cells. In words: MTT assay, KYSE70. It counts as cell-based, human. The settings on record: Homo sapiens, KYSE-70; MTT, 48 h, KYSE70, n = 5. The method in brief:
as §2

The subject of test [3] is KYSE450 cells. As to the kind of experiment: Annexin V/PI flow cytometry for apoptosis, KYSE450. It counts as cell-based, human. The settings on record: 48 h. Here is the method: (§5) Cell-apoptosis analysis was carried out by flow cytometry using the Annexin V/PI apoptosis methods. […] Cells were harvested and incubated with 250 μL of 1 × Annexin V binding buffer containing 5 μL PI and 5 μL FITC Annexin V (final concentration 1.8 μg/ml, Biolegend (cat: 640945) for 15 min at room temperature in dark. 200 µL of 1 × binding buffer was added for flow cytometry analysis (BD FACSCalibur™ Flow Cytometer).

Test [4] has as its system KYSE450TR cells. In words: Annexin V/PI flow cytometry for apoptosis, KYSE450TR. The conditions noted are these: 48 h. It counts as cell-based, human. Here is the method: as §5
Another test concerns H1975 cells. In words: MTT assay for cell proliferation and cytotoxicity, H1975. It counts as cell-based, human. The method in brief:
as §2

For another test, the target named is T2, EGFR (Homo sapiens, UniProt P00533).
T2 construct: purchased Active MOTIF
In words: EGFR kinase assay (ELISA). Type of test: biochemical. The settings on record: 25°C. How it is done:
Kinase inhibitory activities of the compounds were evaluated using the Protein Tyrosine Kinase Assay Kit (SignalChem (British Columbia, Canada)). The kinase enzyme of EGFR was purchased from Active MOTIF. The ELISA experiments were carried out according the instructions of the kit. Active kinases were incubated with indicated compounds in 1 × reaction buffer containing 20 μM substrate at 25°C for 1 h and 2 h, respectively. The absorbance was read with a multimode plate reader (PerkinElmer, United States) at 450 nm.
On the technique in general: An ELISA detects its analyte on a solid surface through an enzyme-linked reagent.

The test system of test [5] is KYSE450 cells. In words: Cell cycle analysis by flow cytometry, KYSE450. Type of test: cell-based, human. The conditions noted are these: KYSE450, 24 h; icotinib at 2 μM, 3l at 8 μM. Here is the method:
as §3

The next test deals with KYSE410TR cells. As to the kind of experiment: MTT assay, taxol-resistant KYSE410TR. Type of test: cell-based, human. The settings on record: Homo sapiens; MTT, 48 h, taxol-resistant KYSE410TR, value in parentheses; read-out: IC50 48 h KYSE410TR (data in parentheses) (converted).
Text: as §1, §4

The next test concerns H1650 cells. As to the kind of experiment: MTT assay for cell proliferation and cytotoxicity, H1650. Type of test: cell-based. The conditions noted are these: Homo sapiens, NCI-H1650, 48 h, H1650, n = 5. An outline of the steps: as §2
For test [6], the system named is KYSE450 cells. As to the kind of experiment: MTT assay, KYSE450. The conditions noted are these: Homo sapiens, KYSE-450; MTT, 48 h, KYSE450, n = 5; read-out: IC50 48 h KYSE450. Type of test: cell-based, human. The method in brief: as §2
The subject of test [7] is KYSE450TR cells. In words: MTT assay, taxol-resistant KYSE450TR. It counts as cell-based, human. The conditions noted are these: Homo sapiens; MTT, 48 h, taxol-resistant KYSE450TR, value in parentheses; read-out: IC50 48 h KYSE450TR (data in parentheses) (converted).
Text: as §1, §4

The subject of another test is SHEE cells. In words: MTT assay, normal esophageal epithelial cell line SHEE. Type of test: cell-based. The conditions noted are these: Homo sapiens, 48 h, n = 5. An outline of the steps:
as §2

Test [8] has as its system KYSE450 cell-derived xenograft. In words: In vivo cell-derived xenograft (CDX) mouse model. Further details: species or system nu/nu nude mice. Here is the method:
Mice were housed under specific pathogen-free conditions. All animal experiments were approved by the Bioethics Committee of Zhengzhou University and followed the guidelines set by the Institutional Animal Care and Use Committee (CUHCI2019002, CUHCI2021001, and CUHCI2021005). To generate the cell-derived xenograft (CDX) mouse model, nu/nu nude mice (Vital River Labs., Beijing, China) were subcutaneously injected with 5 × 10^6 cells (KYSE450). […] Tumor volume was calculated as follows: length × width × height × 0.5. Tumor size and mice weight were measured every 2–3 days. Compounds were administered for 15 days. The tumors were extracted for weighting, immunohistochemistry and immunofluorescence studies.
Frozen sections were washed three times with PBS and incubated overnight at 4°C with Ki-67 antibody. The next day, sections were washed three times and incubated with secondary antibody in PBS. After several washes, slides were counterstained with DAPI (Solarbio). The sections were mounted on microscope and imaged using fluorescent microscopy (Nikon, Tokyo, Japan). Image-Pro Plus 6.0 was used to analyze the fluorescence intensity.
Histological sections were dewaxed, antigens were repaired and sealed with serum in sequence. Next, histological sections were incubated overnight with diluted primary antibodies (1 : 500 dilution), and the control specimens were treated with PBS. The sections were washed 3 times with PBS. Secondary antibody was added and the system was then placed at 37 °C for half an hour. The systems were washed 3 times with PBS. Color developing agent was added. After washing with water, the system was soaked in hematoxylin for 0.5 min for dyeing. The re-dyed slides were washed with water, and then dehydrated. Neutral gums were dropped on the side of the tissue. The slices were then covered with cover glass, sealed and placed in a ventilator for drying. Immunohistochemical staining analysis was then carried out with Image-Pro Plus 6.0.

Where [9] appears, read: nude mice, 50 mg/kg i.p. every day, 15 days, vs control group and icotinib group.

Like-named read-outs stand apart in the source and are kept apart here.

T2 sequence (P00533 25-1210): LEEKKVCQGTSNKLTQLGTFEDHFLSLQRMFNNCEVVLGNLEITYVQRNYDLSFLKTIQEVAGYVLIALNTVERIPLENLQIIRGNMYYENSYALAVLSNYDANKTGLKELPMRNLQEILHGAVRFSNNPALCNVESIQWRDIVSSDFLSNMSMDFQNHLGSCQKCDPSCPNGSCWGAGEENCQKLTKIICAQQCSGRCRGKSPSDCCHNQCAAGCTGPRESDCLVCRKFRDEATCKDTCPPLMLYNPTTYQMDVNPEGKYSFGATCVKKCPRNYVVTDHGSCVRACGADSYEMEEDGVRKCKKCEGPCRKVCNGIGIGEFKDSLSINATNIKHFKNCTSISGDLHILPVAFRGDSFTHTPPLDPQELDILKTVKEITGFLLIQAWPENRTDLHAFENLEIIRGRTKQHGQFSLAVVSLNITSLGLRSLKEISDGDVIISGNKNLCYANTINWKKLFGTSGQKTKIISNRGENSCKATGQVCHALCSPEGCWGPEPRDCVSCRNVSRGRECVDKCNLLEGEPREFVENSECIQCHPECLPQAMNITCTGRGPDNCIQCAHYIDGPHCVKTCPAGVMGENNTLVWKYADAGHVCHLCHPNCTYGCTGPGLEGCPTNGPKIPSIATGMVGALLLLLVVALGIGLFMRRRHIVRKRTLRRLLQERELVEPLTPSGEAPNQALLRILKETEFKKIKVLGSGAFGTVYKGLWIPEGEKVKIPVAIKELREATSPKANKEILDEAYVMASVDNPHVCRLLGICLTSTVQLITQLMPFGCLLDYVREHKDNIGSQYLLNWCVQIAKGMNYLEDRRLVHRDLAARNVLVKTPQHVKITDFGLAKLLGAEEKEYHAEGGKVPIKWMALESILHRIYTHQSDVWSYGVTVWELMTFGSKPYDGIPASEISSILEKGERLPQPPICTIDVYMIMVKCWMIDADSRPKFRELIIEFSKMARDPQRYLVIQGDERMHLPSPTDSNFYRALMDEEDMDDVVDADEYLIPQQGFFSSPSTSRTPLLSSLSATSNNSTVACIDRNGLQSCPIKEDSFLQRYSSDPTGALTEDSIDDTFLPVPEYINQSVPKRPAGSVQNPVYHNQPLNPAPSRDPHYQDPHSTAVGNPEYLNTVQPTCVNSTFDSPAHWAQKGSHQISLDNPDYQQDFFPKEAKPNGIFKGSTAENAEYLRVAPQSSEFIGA
T1 sequence (P00533 672-1210): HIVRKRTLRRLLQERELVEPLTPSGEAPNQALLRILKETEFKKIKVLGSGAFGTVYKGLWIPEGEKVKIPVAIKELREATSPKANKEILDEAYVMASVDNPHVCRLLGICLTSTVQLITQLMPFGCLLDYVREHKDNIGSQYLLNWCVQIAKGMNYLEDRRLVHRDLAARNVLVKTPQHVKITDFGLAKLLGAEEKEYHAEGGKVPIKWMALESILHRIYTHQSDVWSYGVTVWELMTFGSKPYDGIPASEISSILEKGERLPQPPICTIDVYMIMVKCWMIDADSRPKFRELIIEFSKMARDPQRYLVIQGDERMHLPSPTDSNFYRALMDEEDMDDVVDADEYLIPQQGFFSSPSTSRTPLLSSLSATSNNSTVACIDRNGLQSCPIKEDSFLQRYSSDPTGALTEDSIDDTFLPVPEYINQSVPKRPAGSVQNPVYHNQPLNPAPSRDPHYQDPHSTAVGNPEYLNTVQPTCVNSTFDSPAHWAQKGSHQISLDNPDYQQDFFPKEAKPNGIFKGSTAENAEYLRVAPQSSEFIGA

With `C#Cc1cccc(Nc2ncnc3cc4c(cc23)OCCOCCOCCO4)c1` [icotinib, reference compound], the IC50 was greater than 50 µM with H1650TR cells; greater than 50 µM in the test on KYSE410 cells; greater than 50 µM in the test with H1975OR cells (NCI-H1975, 48 h, osimertinib-resistant H1975OR, value in parentheses in H1975 column, read-out: IC50 48 h H1975OR (data in parentheses) (converted)); greater than 50 µM in the test on KYSE70TR cells; greater than 50 µM with KYSE70 cells; greater than 50000 nM in the test on H1975 cells (Homo sapiens, NCI-H1975, 48 h, MTT, 48 h, H1975, n = 5, read-out: IC50 48 h H1975). For the same molecule, the IC50 is 48300 ± 2130 nM in the test on H1975 cells (MTT, 48 h, H1975, n = 5, read-out: IC50 48 h H1975); 1.38 nM at EGFR (incubation 1 h, read-out: IC50 EGFR 1 h); 38 nM at EGFR (incubation 2 h, read-out: IC50 EGFR 2 h); greater than 50 µM in the test with KYSE410TR cells; greater than 50 µM with H1650 cells; 30.4 ± 1.96 µM with KYSE450 cells [6]. In addition, the IC50 with KYSE450TR cells [7] is greater than 50 µM; with SHEE cells, 19.2 ± 1.29 µM. In test [1], the “Rmax(RU)” value was determined as 15.74 RU. Moreover, the affinity in test [1] (25°C), expressed as Kd, was 36.1 µM. The “cell cycle phase in which cells were arrested” value in the test on KYSE450TR cells [2] and with KYSE450 cells [5] was “G1 phase” throughout. Further, the “proportion of apoptotic cells” value amounted to 7.84% in the test on KYSE450 cells [3] (KYSE450, 2 μM); 12.25% in the test with KYSE450 cells [3] (KYSE450, 4 μM); 8.51% in the test with KYSE450TR cells [4] (5 μM); 10.43% in the test with KYSE450TR cells [4] (10 μM).
On to `C=CC(=O)Nc1cc(Nc2nccc(-c3cn(C)c4ccccc34)n2)c(OC)cc1N(C)CCN(C)C` [osimertinib, reference compound], for which the IC50 is 13.8 ± 2.98 µM in the test with H1975OR cells (H1975OR, 24 h, resistance-inducing drug (osimertinib), read-out: 24 h IC50); 5.97 ± 0.289 µM with H1975OR cells (H1975OR, 48 h, resistance-inducing drug (osimertinib), read-out: 48 h IC50); 585 ± 26.1 nM in the test on H1975 cells (Homo sapiens, NCI-H1975, 24 h, H1975, MTT, 24 h, resistance-inducing drug (osimertinib), read-out: 24 h IC50); 102 ± 12.1 nM in the test on H1975 cells (Homo sapiens, NCI-H1975, 48 h, H1975, MTT, 48 h, resistance-inducing drug (osimertinib), read-out: 48 h IC50).
With `C#Cc1cccc(Nc2ncnc3cc(OCCOC)c(OCCOC)cc23)c1` [erlotinib, reference compound], in [8] (50 mg/kg i.p., immunofluorescence), the “expression of proliferation marker Ki-67 in tumor” value is reported as “decreased significantly”. In [8] (50 mg/kg i.p., immunohistochemistry), the “expression of P-ERK (Tyr202/204) in tumor” value is “decreased significantly”. In addition, in [8] (setting [9]), the ESCC tumor volume entry was “markedly reduced” and the average tumor weight entry is “markedly reduced”.

For orientation: IC50 means the concentration that inhibits the measured activity by half. What is called Kd is a measure of binding affinity in units of concentration. Lower therefore signals tighter binding.
